# Experimental data from the Deep4Chem optical property database.
# Assay: solvent given as SMILES
compound,measurement,setting,value
CNCCCC1c2ccccc2C=Cc2ccccc21,absorption maximum,in CC#N,293 nm
same,absorption maximum,in CO,293 nm
same,absorption maximum,in O,292 nm
Cc1cc(C)c([B-]2(c3c(C)cc(C)cc3C)[O+]=P(c3ccccc3)(c3ccccc3)c3cc(C#Cc4ccccc4)sc3-c3sc(C#Cc4ccccc4)cc32)c(C)c1,absorption maximum,in C1CCOC1,417 nm
CCC1(CC)c2cc(-c3ccc(-c4ccc5c(c4)C(CC)(CC)c4cc(C(C)(C)C)ccc4-5)cc3)ccc2-c2ccc(C(C)(C)C)cc21,absorption maximum,in CO,332.42 nm
CCCCCCc1ccc(-n2c3[n+](c4c5ccccc5c5ccccc5c42)[B-](C)(C)c2ccc4ccccc4c2-3)cc1,absorption maximum,in C1CCOC1,392 nm
same,absorption maximum,in CC#N,385 nm
same,absorption maximum,in Cc1ccccc1,393 nm
same,absorption maximum,in ClCCl,390 nm
COC(=O)C(NC(=O)CCNc1cccc2ccccc12)c1ccccc1 (stereo not given),absorption maximum,in CCO,330 nm
CCOC(=O)c1c(C=Cc2ccccc2)oc(NC2CCCCC2)c1C(=O)OCC,absorption maximum,in CC#N,384 nm
C[Si](c1ccc(-c2nc3ccccc3n2-c2ccccc2)cc1)(c1ccc(-c2nc3ccccc3n2-c2ccccc2)cc1)c1ccc(-c2nc3ccccc3n2-c2ccccc2)cc1,absorption maximum,in ClCCl,307 nm
CCN(CC)c1ccc(-c2nc3c(c4c2-c2ccccc2CC4)-c2ccccc2CC3)cc1,absorption maximum,in C1CCOC1,357 nm
same,absorption maximum,in CC#N,360 nm
same,absorption maximum,in CCCCCC,355 nm
same,absorption maximum,in CCOC(C)=O,346 nm
same,absorption maximum,in CO,352 nm
same,absorption maximum,in CS(C)=O,361 nm
same,absorption maximum,in Cc1ccccc1,359 nm
same,absorption maximum,in ClCCl,357 nm
COc1ccc(-c2csc(-c3ccncc3)n2)cc1,absorption maximum,in CC#N,394 nm
same,absorption maximum,in CCO,340 nm
same,absorption maximum,in CN(C)C=O,340 nm
same,absorption maximum,in CS(C)=O,341 nm
same,absorption maximum,in Cc1ccccc1,340 nm
same,absorption maximum,in ClCCl,401 nm
COc1cc(-c2nc3c4cccnc4c4ncccc4c3[nH]2)c(OC)cc1/C=C/c1ccncc1,absorption maximum,in C1CCOC1,394 nm
same,absorption maximum,in CC#N,392 nm
same,absorption maximum,in CN(C)C=O,396 nm
same,absorption maximum,in Cc1ccccc1,395 nm
CN(C)c1ccc(C#Cc2ccccc2)cc1,absorption maximum,in C1CCCCC1,316.9 nm
same,absorption maximum,in C1CCOC1,328.8 nm
same,absorption maximum,in C1COCCO1,326.61 nm
same,absorption maximum,in CC1CCCO1,327.1 nm
same,absorption maximum,in CC(C)=O,329.4 nm
same,absorption maximum,in CC(C)CC(C)(C)C,315 nm
same,absorption maximum,in CC(C)O,321.4 nm
same,absorption maximum,in CCCCCCCCCCCCCCCC,316.9 nm
same,absorption maximum,in CCCCCCCCCCCCCCCCCl,330 nm
same,absorption maximum,in CO,324 nm
same,absorption maximum,in Cc1ccccc1,326.3 nm
Cc1ccc2ccc3c(C)ccc4ccc1c2c43,absorption maximum,in CCCCCC,344 nm
same,absorption maximum,in CO,344 nm
same,absorption maximum,in ClCCl,346 nm
CN(C)c1ccc(/C=C/c2cnc(C#Cc3ccc(C#N)cc3)o2)cc1,absorption maximum,in ClCCl,390 nm
F[B-]12OC(c3ccccc3)=Nc3cccc([n+]31)N=C(c1ccccc1)O2,absorption maximum,in ClCCl,394 nm
CCN1c2ccc(/C=N/Nc3ccccn3)cc2Sc2cc(-c3ccc(C#N)cc3)ccc21,absorption maximum,in C1CCOC1,383 nm
same,absorption maximum,in CS(C)=O,398 nm
same,absorption maximum,in Cc1ccccc1,386 nm
same,absorption maximum,in ClCCl,388 nm
Oc1ccc(C2=N[N+]3=Cc4c(ccc5ccccc45)O[B-]3(c3ccc([B-]45OC(c6ccc(O)cc6)=N[N+]4=Cc4c(ccc6ccccc46)O5)cc3)O2)cc1 (stereo not given),absorption maximum,in C1CCOC1,424 nm
CN1/C(=C/C=C(/C=C/c2sc3ccccc3[n+]2C)c2ccc(F)cc2)Sc2ccccc21,absorption maximum,in CCO,648 nm
same,absorption maximum,in CO,646 nm
same,absorption maximum,in CS(C)=O,656 nm
same,absorption maximum,in O,641 nm
CCCCOC(=O)c1cc(Oc2ccc(OC)cc2)c2c3c(Cl)cc4c5c(cc(Cl)c(c6c(Oc7ccc(OC)cc7)cc(C(=O)OCCCC)c1c26)c53)C(=O)N(c1c(C(C)C)cccc1C(C)C)C4=O,absorption maximum,in Cc1ccccc1,531 nm
Cc1cccc(Nc2ccccc2C(=O)O)c1C,absorption maximum,in CC#N,351 nm
same,absorption maximum,in CCOC(C)=O,351 nm
same,absorption maximum,in CO,345 nm
same,absorption maximum,in ClC(Cl)Cl,357 nm
F[B-]1(F)n2c(-c3ccccc3)cc(-c3ccccn3)c2N=C2C(c3ccccn3)=CC(c3ccccc3)=[N+]21,absorption maximum,in CC#N,655 nm
Cc1cc2oc3ccccc3c2c2[nH]c3ccccc3c12,absorption maximum,in ClCCl,337 nm
CC(C)(C)c1ccc(C#Cc2cc(C#Cc3ccc(C(C)(C)C)cc3)c(C#Cc3ccc(C(C)(C)C)cc3)c(C#Cc3ccc(C(C)(C)C)cc3)c2C#Cc2ccc(C(C)(C)C)cc2)cc1,absorption maximum,in ClCCl,373 nm
Cc1nc2c(ccc3c2sc(/C=C/c2cc4c5c(c2)CCCN5CCC4)[n+]3C)s1,absorption maximum,in CO,574 nm
same,absorption maximum,in ClC(Cl)Cl,595 nm
CC1=[N+]2C(=C(Oc3ccccc3)c3ccc(C)n3[B-]2(F)F)C=C1c1cc2n(c1)[B-](F)(F)[N+]1=CC=CC1=C2c1c(C)cc(C)cc1C,absorption maximum,in C1CCCCC1,582 nm
same,absorption maximum,in CCOC(C)=O,577 nm
Fc1ccc(-c2cc3c4c(c2)CCc2cc(-c5ccc(F)cc5)cc(c2-4)CC3)cc1,absorption maximum,in ClC(Cl)Cl,323.56 nm
C#CCOc1ccc(/C=C/C2=[N+]3C(=C(c4ccc(N(C)CC)cc4)c4c(C)cc(C)n4[B-]3(F)F)C(C)=C2)cc1,absorption maximum,in CO,569 nm
CC1(C)Cc2c(c3ccccc3c3nc4ccccc4nc23)O1,absorption maximum,in C1CCCCC1,456 nm
same,absorption maximum,in C1CCOC1,459.98 nm
same,absorption maximum,in CN(C)C=O,457.04 nm
same,absorption maximum,in CO,458.09 nm
same,absorption maximum,in ClC(Cl)Cl,459.98 nm
same,absorption maximum,in c1ccccc1,458.09 nm
